Assay results: patent US6264991A, “Compositions and methods for treating intracellular infections” (priority 1998, dated 2001)
In brackets after ≈: the same amount, converted by molar mass. Several values for one entry are separate records, joined by “and”; a condition that tells them apart may be missing. Equal values may be shown once. Read-outs that look alike come from different tables or passages of the source.

Experiments:
[1] = system: Mycobacterium tuberculosis H37Rv; test: Minimal inhibitory concentration (Etest); type: cell-based, Mycobacterium tuberculosis H37Rv (ATCC 27294)
Excerpt: Mycobacterium tuberculosis H37Rv (ATCC 27294, SRI #1345) was maintained on Middlebrook 7H1O agar slants, containing 0.5% glycerol and 10% OADC (Difco).

[2] = system: Mycobacterium tuberculosis; test: MIC for rifampicin, tuberculosis in primates
M. tuberculosis H37Rv [3] = conditions: free drug, all three concentrations (0.25, 0.75, 2.0 μg/ml)
M. tuberculosis H37Rv [4] = conditions: free rifampicin, all concentrations
M. tuberculosis H37Rv [5] = conditions: for log10 CFU: individual mice; for log10 CFU / Mean log10 CFU: day 26

Compound: CO[C@H]1/C=C/O[C@@]2(C)Oc3c(C)c(O)c4c(O)c(c(/C=N/N5CCN(C)CC5)c(O)c4c3C2=O)NC(=O)/C(C)=C\C=C\[C@H](C)[C@H](O)[C@@H](C)[C@@H](O)[C@@H](C)[C@H](OC(C)=O)[C@@H]1C [Rifampicin]
- MIC [1]: 0.06 to 0.25 µg/mL (≈ 0.0729 to 0.304 µM)
- MIC ([1]; Etest, read-out: minimal inhibitory concentration (MIC)): 0.06 to 0.25 µg/mL (≈ 0.0729 to 0.304 µM)
- MIC [2]: 0.06 to 0.25 µg/mL (≈ 0.0729 to 0.304 µM)
- reduction in CFUs, J774 (M. tuberculosis H37Rv [3]): significant reduction in CFUs
- reduction of CFUs, MM6 (M. tuberculosis H37Rv [4]): significant reduction of CFUs
- log10 CFU (M. tuberculosis H37Rv [5]; oral 0.42 mg/kg daily, 0.42 mg/kg): 5.86 log10 CFU and 5.66 log10 CFU and 5.59 log10 CFU and 5.72 log10 CFU and 5.95 log10 CFU and 5.88 log10 CFU and 5.7 log10 CFU and 6.15 log10 CFU
- Mean log10 CFU (M. tuberculosis H37Rv [5]; oral 0.42 mg/kg daily): 5.62 log10 CFU
- log10 CFU (M. tuberculosis H37Rv [5]; oral 1.25 mg/kg daily, 1.25 mg/kg): 5.97 log10 CFU and 5.71 log10 CFU and 5.69 log10 CFU and 5.64 log10 CFU and 5.47 log10 CFU and 5.44 log10 CFU and 5.62 log10 CFU and 5.88 log10 CFU and 5.72 log10 CFU
- Mean log10 CFU (M. tuberculosis H37Rv [5]; oral 1.25 mg/kg daily): 5.68 log10 CFU
- log10 CFU (M. tuberculosis H37Rv [5]; oral 5.0 mg/kg daily, 5 mg/kg): 5.45 log10 CFU and 5.31 log10 CFU and 5.10 log10 CFU and 5.43 log10 CFU and 5.06 log10 CFU and 5.18 log10 CFU and 5.20 log10 CFU and 5.51 log10 CFU and 5.32 log10 CFU
- Mean log10 CFU (M. tuberculosis H37Rv [5]; oral 5.0 mg/kg daily): 5.27 log10 CFU
- log10 CFU (M. tuberculosis H37Rv [5]; oral 10 mg/kg daily, 10 mg/kg): 4.27 log10 CFU and 4.72 log10 CFU and 4.15 log10 CFU and 4.00 log10 CFU and 3.48 log10 CFU and 4.54 log10 CFU and 3.30 log10 CFU and 3.00 log10 CFU and 4.48 log10 CFU
- Mean log10 CFU (M. tuberculosis H37Rv [5]; oral 10 mg/kg daily): 3.99 log10 CFU
- reductions in viable M. tuberculosis H37Rv (M. tuberculosis H37Rv [5]; oral 5.0 and 10 mg/kg, 26 days post-infection): significant reductions
